Where two headings read alike, the source gives them in different places.
How the values were obtained:
M3 = M3 (Homo sapiens, UniProt P20309); experiment: GPCR panel, cAMP or calcium FLIPR assays; type: cell-based
Protocol: (§1) 28 GPCRs were evaluated through cAMP or calcium FLIPR assays[67].

M1 (h) = biological target: T1, M1 (h) (Homo sapiens, UniProt P11229); experiment: Cerep panel; type: binding
T1 construct: purchased Cerep (receptors, ion channels, transporters); Eurofins Panlabs (kinases)
Protocol: (§2) A panel of 52 different receptors, ion channels and transporters was tested by Cerep, Inc. (Redmond, WA).

ADRA2A = ADRA2A (Homo sapiens, UniProt P08913); experiment: GPCR panel, cAMP or calcium FLIPR assays; type: cell-based
Protocol: as §1

CaMKIδ(h) = biological target: T2, CaMKIδ(h) (Homo sapiens, UniProt Q8IU85); experiment: Kinase panel; type: biochemical
T2 construct: purchased Cerep (receptors, ion channels, transporters); Eurofins Panlabs (kinases)
Protocol: (§3) Kinase selectivity was conducted by Eurofins Panlabs Inc (St Charles, MO).

B2 (h) = biological target: T3, B2 (h) (Homo sapiens, UniProt P30411); experiment: Cerep panel; type: binding
T3 construct: purchased Cerep (receptors, ion channels, transporters); Eurofins Panlabs (kinases)
Protocol: as §2

rat whole blood = experiment: in vitro whole blood assay, IL-17A production; type: cell-based; conditions: rat whole blood diluted 1:4; read-out: IC50, inhibition of IL-17A production
Protocol: Two days later, IL-17A levels were measured in culture supernatant samples (see supplementary materials and methods).

Blk(h) = biological target: T4, Blk(h) (Homo sapiens, UniProt P51451); experiment: Kinase panel; type: biochemical
T4 construct: purchased Cerep (receptors, ion channels, transporters); Eurofins Panlabs (kinases)
Protocol: as §3

M3 (h) = biological target: T5, M3 (h) (Homo sapiens, UniProt P20309); experiment: Cerep panel; type: binding
T5 construct: purchased Cerep (receptors, ion channels, transporters); Eurofins Panlabs (kinases)
Protocol: as §2

PPARγ = biological target: T6, PPARγ (Homo sapiens, UniProt P37231); experiment: nuclear receptor cellular GAL4 reporter assay; type: cell-based; conditions: agonist and antagonist mode; read-out: potency in agonist and antagonist mode
T6 construct: expressed in transfected cells

MR = biological target: T7, MR (Homo sapiens, UniProt P08235); experiment: nuclear receptor cellular GAL4 reporter assay; type: cell-based; conditions: agonist and antagonist mode; read-out: potency in agonist and antagonist mode
T7 construct: expressed in transfected cells

PDGFRβ(h) = biological target: T8, PDGFRβ(h) (Homo sapiens, UniProt P09619); experiment: Kinase panel; type: biochemical
T8 construct: purchased Cerep (receptors, ion channels, transporters); Eurofins Panlabs (kinases)
Protocol: as §3

CK2α2(h) = biological target: T9, CK2α2(h) (Homo sapiens, UniProt P19784); experiment: Kinase panel; type: biochemical
T9 construct: purchased Cerep (receptors, ion channels, transporters); Eurofins Panlabs (kinases)
Protocol: as §3

5HT1B = 5HT1B (Homo sapiens, UniProt P28222); experiment: GPCR panel, cAMP or calcium FLIPR assays; type: cell-based
Protocol: 28 GPCRs were evaluated through cAMP or calcium FLIPR assays[67]. A panel of 52 different receptors, ion channels and transporters was tested by Cerep, Inc. (Redmond, WA).

[1] = phase 1 single ascending dose study, pharmacokinetics; type: in vivo, human; conditions: for Tmax: median (range)
Protocol: Based on mean values, dose normalized overall exposure (AUC216h, AUC∞) also appeared to increase proportionally with dose.
Informed consent was obtained from all participants. No formal sample size and power calculations were performed.
Plasma samples with K2EDTA anticoagulant were treated with acetonitrile for protein extraction then processed with liquid chromatography coupled to tandem mass spectrometry. Reversed-phase HPLC separation was used and tandem MS/MS detection was set in TIS positive mode. […] All the data reported in sample analysis and validation met the predefined acceptance criteria and fulfilled the requirements and recommendations in the current FDA guidance for bioanalytical method validations and analysis.

FGFR1(h) = biological target: T10, FGFR1(h) (Homo sapiens, UniProt P11362); experiment: Kinase panel; type: biochemical
T10 construct: purchased Cerep (receptors, ion channels, transporters); Eurofins Panlabs (kinases)
Protocol: as §3

CLK2(h) = biological target: T11, CLK2(h) (Homo sapiens, UniProt P49760); experiment: Kinase panel; type: biochemical
T11 construct: purchased Cerep (receptors, ion channels, transporters); Eurofins Panlabs (kinases)
Protocol: as §3

MAPK1(h) = biological target: T12, MAPK1(h) (Homo sapiens, UniProt P27361); experiment: Kinase panel; type: biochemical
T12 construct: purchased Cerep (receptors, ion channels, transporters); Eurofins Panlabs (kinases)
Protocol: as §3

NT1 (h) (NTS1) = biological target: T13, NT1 (h) (NTS1) (Homo sapiens, UniProt P30989); experiment: Cerep panel; type: binding
T13 construct: purchased Cerep (receptors, ion channels, transporters); Eurofins Panlabs (kinases)
Protocol: as §2

NEK2(h) = biological target: T14, NEK2(h) (Homo sapiens, UniProt P51955); experiment: Kinase panel; type: biochemical
T14 construct: purchased Cerep (receptors, ion channels, transporters); Eurofins Panlabs (kinases)
Protocol: as §3

AT1 = AT1 (Homo sapiens, UniProt P30556); experiment: GPCR panel, cAMP or calcium FLIPR assays; type: cell-based
Protocol: as §1

5-HT5A (h) = biological target: T15, 5-HT5A (h) (Homo sapiens, UniProt P47898); experiment: Cerep panel; type: binding
T15 construct: purchased Cerep (receptors, ion channels, transporters); Eurofins Panlabs (kinases)
Protocol: as §2

TrkC(h) = biological target: T16, TrkC(h) (Homo sapiens, UniProt Q16288); experiment: Kinase panel; type: biochemical
T16 construct: purchased Cerep (receptors, ion channels, transporters); Eurofins Panlabs (kinases)
Protocol: as §3

ADRB2 = ADRB2 (Homo sapiens, UniProt P07550); experiment: GPCR panel, cAMP or calcium FLIPR assays; type: cell-based
Protocol: as §1

GR = biological target: T17, GR (Homo sapiens, UniProt P04150); experiment: nuclear receptor cellular GAL4 reporter assay; type: cell-based; conditions: agonist and antagonist mode; read-out: potency in agonist and antagonist mode
T17 construct: expressed in transfected cells

PKBα(h) = biological target: T18, PKBα(h) (Homo sapiens, UniProt P31749); experiment: Kinase panel; type: biochemical
T18 construct: purchased Cerep (receptors, ion channels, transporters); Eurofins Panlabs (kinases)
Protocol: as §3

CHK2(h) = biological target: T19, CHK2(h) (Homo sapiens, UniProt O96017); experiment: Kinase panel; type: biochemical
T19 construct: purchased Cerep (receptors, ion channels, transporters); Eurofins Panlabs (kinases)
Protocol: as §3

H2 (h) = biological target: T20, H2 (h) (Homo sapiens, UniProt P25021); experiment: Cerep panel; type: binding
T20 construct: purchased Cerep (receptors, ion channels, transporters); Eurofins Panlabs (kinases)
Protocol: as §2

[2] = both sexes, human, plasma, po, 10 mg, 10 mg single oral dose, fasted, n=6, mean (SD)
[3] = both sexes, human, plasma, po, 30 mg, 30 mg single oral dose, fasted, n=6, mean (SD)
[4] = both sexes, human, plasma, po, 100 mg, 100 mg single oral dose, fasted, n=9, mean (SD)
[5] = both sexes, human, plasma, po, 100 mg, 100 mg single oral dose, fed, n=9, mean (SD)
[6] = both sexes, human, plasma, po, 200 mg, 200 mg single oral dose, fasted, n=6, mean (SD)

T2 sequence (Q8IU85 whole entry): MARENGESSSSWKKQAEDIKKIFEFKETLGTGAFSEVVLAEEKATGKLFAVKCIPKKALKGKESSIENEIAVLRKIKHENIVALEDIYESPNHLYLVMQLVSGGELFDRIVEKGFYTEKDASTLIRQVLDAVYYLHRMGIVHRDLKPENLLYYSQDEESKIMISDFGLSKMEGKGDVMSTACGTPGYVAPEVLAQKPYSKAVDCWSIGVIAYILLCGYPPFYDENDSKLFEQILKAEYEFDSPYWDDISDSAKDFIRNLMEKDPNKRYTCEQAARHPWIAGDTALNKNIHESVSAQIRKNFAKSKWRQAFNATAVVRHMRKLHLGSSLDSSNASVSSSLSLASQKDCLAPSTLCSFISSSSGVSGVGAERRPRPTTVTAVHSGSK
T3 sequence (P30411 whole entry): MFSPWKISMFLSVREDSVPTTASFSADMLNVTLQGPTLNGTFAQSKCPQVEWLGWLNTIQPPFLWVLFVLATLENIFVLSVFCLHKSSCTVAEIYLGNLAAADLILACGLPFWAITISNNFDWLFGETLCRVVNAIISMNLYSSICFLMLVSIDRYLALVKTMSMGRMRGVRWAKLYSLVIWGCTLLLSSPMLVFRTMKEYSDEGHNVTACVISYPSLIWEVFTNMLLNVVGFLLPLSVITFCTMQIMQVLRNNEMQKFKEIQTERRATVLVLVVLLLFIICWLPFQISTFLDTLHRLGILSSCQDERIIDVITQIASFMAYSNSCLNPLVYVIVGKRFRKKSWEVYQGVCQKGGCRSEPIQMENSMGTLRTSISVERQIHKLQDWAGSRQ
T20 sequence (P25021 whole entry): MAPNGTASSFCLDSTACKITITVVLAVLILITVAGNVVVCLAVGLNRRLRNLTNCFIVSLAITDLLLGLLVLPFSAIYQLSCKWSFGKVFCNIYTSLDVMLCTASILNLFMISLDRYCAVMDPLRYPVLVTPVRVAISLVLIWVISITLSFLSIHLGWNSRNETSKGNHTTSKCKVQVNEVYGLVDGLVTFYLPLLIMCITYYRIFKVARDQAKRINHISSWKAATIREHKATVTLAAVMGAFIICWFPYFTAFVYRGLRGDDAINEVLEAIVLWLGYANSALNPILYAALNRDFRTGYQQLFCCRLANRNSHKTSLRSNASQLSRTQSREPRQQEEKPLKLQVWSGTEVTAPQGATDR
Chain of ADRB2 (P07550 whole entry, species assumed, the tested form may be a part): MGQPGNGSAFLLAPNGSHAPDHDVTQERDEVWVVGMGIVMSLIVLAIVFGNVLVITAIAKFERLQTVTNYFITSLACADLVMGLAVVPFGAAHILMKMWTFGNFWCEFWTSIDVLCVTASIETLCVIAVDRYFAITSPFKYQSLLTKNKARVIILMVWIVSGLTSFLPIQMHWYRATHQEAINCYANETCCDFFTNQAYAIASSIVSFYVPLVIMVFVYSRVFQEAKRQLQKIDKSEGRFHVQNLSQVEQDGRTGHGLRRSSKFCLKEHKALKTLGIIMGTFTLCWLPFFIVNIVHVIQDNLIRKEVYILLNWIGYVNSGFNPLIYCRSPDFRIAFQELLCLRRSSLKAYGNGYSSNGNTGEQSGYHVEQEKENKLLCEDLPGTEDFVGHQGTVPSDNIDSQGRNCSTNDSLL
T18 sequence (P31749 whole entry): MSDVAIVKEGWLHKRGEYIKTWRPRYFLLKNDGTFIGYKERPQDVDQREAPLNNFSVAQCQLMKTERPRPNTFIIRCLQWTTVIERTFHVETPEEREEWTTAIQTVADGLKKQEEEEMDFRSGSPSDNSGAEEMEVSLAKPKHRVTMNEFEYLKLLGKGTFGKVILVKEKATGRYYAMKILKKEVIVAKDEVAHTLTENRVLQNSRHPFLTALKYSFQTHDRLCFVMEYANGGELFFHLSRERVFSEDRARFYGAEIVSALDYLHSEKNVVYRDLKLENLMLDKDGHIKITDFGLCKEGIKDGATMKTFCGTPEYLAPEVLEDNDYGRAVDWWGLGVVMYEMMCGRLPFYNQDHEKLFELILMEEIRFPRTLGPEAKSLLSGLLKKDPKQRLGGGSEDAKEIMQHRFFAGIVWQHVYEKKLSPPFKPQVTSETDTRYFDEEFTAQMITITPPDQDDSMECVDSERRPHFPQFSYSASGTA
T14 sequence (P51955 whole entry): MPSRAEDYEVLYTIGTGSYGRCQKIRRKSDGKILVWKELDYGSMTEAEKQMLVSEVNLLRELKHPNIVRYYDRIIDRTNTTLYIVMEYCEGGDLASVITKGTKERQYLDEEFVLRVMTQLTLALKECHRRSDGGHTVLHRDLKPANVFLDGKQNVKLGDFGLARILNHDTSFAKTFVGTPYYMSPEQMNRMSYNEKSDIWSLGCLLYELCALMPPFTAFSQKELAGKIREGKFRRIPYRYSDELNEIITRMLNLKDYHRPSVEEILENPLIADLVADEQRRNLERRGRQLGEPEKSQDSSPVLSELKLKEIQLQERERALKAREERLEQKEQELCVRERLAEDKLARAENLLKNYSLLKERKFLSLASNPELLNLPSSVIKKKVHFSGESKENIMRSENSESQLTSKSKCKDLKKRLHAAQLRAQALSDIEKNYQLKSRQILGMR
T13 sequence (P30989 whole entry): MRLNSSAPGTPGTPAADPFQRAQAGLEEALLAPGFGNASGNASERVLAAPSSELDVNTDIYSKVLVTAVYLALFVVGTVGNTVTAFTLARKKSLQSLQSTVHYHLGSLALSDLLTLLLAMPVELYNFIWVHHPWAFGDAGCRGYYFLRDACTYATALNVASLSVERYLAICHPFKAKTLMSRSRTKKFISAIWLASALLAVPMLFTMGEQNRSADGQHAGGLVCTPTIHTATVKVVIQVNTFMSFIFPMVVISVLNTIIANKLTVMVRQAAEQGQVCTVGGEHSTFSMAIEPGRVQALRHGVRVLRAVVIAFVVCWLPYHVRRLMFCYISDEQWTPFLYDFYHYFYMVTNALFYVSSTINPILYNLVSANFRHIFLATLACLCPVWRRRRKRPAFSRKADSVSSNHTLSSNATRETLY
T19 sequence (O96017 whole entry): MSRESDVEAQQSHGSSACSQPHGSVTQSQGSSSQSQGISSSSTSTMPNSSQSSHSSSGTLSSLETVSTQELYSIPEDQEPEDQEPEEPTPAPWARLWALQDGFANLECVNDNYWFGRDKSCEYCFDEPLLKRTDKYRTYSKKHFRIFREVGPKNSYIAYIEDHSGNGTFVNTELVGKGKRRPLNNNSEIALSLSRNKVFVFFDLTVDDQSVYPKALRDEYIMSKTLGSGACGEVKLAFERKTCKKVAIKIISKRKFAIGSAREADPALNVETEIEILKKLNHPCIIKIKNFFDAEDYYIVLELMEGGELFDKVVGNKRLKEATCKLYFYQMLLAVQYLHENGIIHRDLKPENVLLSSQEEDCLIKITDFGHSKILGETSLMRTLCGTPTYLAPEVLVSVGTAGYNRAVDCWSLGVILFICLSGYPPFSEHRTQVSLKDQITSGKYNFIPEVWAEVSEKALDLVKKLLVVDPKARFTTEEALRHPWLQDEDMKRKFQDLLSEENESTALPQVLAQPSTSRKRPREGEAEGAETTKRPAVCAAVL
Chain of 5HT1B (P28222 whole entry, species assumed): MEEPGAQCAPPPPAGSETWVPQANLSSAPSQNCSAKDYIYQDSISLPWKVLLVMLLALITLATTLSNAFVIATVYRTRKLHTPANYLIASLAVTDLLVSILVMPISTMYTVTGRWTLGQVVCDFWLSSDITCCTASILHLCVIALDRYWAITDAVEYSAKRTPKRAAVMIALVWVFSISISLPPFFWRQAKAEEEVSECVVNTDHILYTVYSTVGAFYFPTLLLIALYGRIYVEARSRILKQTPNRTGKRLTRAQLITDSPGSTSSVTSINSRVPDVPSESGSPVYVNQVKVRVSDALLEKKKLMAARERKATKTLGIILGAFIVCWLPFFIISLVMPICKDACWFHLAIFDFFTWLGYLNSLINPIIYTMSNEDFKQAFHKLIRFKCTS
T4 sequence (P51451 whole entry): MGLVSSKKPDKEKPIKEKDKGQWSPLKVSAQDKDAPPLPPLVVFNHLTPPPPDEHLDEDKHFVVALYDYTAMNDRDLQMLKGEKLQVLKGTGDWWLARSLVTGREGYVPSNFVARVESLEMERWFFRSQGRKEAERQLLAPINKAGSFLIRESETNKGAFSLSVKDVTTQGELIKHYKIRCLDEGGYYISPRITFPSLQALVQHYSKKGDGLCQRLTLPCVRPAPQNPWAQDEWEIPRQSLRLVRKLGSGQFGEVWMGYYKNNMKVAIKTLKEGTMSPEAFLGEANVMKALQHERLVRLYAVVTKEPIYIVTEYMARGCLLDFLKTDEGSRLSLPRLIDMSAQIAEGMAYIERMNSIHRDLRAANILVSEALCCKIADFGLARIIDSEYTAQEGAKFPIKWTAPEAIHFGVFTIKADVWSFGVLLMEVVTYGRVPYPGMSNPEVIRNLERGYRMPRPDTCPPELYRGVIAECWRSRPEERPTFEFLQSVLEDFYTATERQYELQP
Chain of M3 (P20309 whole entry): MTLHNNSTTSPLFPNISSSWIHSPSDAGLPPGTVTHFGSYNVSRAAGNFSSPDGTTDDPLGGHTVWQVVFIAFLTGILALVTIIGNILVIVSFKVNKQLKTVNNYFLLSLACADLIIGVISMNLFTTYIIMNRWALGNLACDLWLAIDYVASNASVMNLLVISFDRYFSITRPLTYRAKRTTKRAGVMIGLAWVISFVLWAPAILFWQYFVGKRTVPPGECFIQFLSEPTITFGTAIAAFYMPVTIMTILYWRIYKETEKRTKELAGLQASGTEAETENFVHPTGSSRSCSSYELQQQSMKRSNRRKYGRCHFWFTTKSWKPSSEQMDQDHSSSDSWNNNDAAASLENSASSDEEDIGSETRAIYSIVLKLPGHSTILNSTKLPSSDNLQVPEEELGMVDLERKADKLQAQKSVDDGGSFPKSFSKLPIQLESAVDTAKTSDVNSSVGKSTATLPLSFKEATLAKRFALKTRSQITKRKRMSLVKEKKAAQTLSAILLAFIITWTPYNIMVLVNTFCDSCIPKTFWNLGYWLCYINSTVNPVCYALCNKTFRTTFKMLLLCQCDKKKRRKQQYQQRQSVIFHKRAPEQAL
T5 sequence (P20309 whole entry): as above

## CC1CCCN1C(=O)c1nc(C(=O)NCC(C)(C)O)sc1-c1ccc(C(O)(C(F)(F)F)C(F)(F)F)c(Cl)c1Cl (stereo not drawn) [JNJ-61803534]
M3; agonist
  EC50: > 10 µM
M3; antagonist
  IC50: > 10 µM
M1 (h)
  inhibition at 1 µM: < 10%
  inhibition at 10 µM: < 10%
ADRA2A; agonist
  EC50: > 12.5 µM
ADRA2A; antagonist
  IC50: > 12.5 µM
CaMKIδ(h)
  activity at 1 µM: 81%
  activity at 10 µM: 100%
B2 (h)
  inhibition at 1 µM: < 10%
  inhibition at 10 µM: < 10%
Rat whole blood
  IC50: 0.12 ± 0.01 µM
Blk(h)
  activity at 1 µM: 95%
  activity at 10 µM: 102%
M3 (h)
  inhibition at 1 µM: < 10%
  inhibition at 10 µM: < 10%
PPARγ
  IC50: > 1.5 µM
MR
  IC50: > 1.5 µM
PDGFRβ(h)
  activity at 1 µM: 103%
  activity at 10 µM: 143%
CK2α2(h)
  activity at 1 µM: 92%
  activity at 10 µM: 100%
5HT1B; agonist
  EC50: > 12.5 µM
5HT1B; antagonist
  IC50: > 12.5 µM
[1]; 100 mg single oral dose, fed, n=9
  Tmax: 12 h
[1]; [2]
  AUC(0-inf): 8480 ng·h/mL
  Cmax: 35.9 ng/mL
[1]; both sexes, human, plasma, po, 10 mg, 10 mg single oral dose, fasted, n=6, mean (SD), read-out: AUC216h
  AUC(0-t): 5180 ng·h/mL
[1]; both sexes, human, plasma, po, 10 mg, 10 mg single oral dose, fasted, n=6, mean (SD), read-out: t1/2 (converted)
  half-life: 168 h
[1]; both sexes, human, plasma, po, 10 mg, 10 mg single oral dose, fasted, n=6, read-out: tmax
  Tmax: 10 h
[1]; [3]
  AUC(0-inf): 28700 ng·h/mL
  Cmax: 146 ng/mL
[1]; both sexes, human, plasma, po, 30 mg, 30 mg single oral dose, fasted, n=6, mean (SD), read-out: AUC216h
  AUC(0-t): 17400 ng·h/mL
[1]; both sexes, human, plasma, po, 30 mg, 30 mg single oral dose, fasted, n=6, mean (SD), read-out: t1/2 (converted)
  half-life: 170 h
[1]; both sexes, human, plasma, po, 30 mg, 30 mg single oral dose, fasted, n=6, read-out: tmax
  Tmax: 6.02 h
[1]; [4]
  AUC(0-inf): 100000 ng·h/mL
  Cmax: 700 ng/mL
[1]; both sexes, human, plasma, po, 100 mg, 100 mg single oral dose, fasted, n=9, mean (SD), read-out: AUC216h
  AUC(0-t): 68400 ng·h/mL
[1]; both sexes, human, plasma, po, 100 mg, 100 mg single oral dose, fasted, n=9, mean (SD), read-out: AUClast
  AUC(0-t): 99100 ng·h/mL
[1]; both sexes, human, plasma, po, 100 mg, 100 mg single oral dose, fasted, n=9, mean (SD), read-out: t1/2 (converted)
  half-life: 170 h
[1]; both sexes, human, plasma, po, 100 mg, 100 mg single oral dose, fasted, n=9, read-out: tmax
  Tmax: 6 h
[1]; [5]
  AUC(0-inf): 90400 ng·h/mL
  Cmax: 602 ng/mL
[1]; both sexes, human, plasma, po, 100 mg, 100 mg single oral dose, fed, n=9, mean (SD), read-out: AUC216h
  AUC(0-t): 61700 ng·h/mL
[1]; both sexes, human, plasma, po, 100 mg, 100 mg single oral dose, fed, n=9, mean (SD), read-out: AUClast
  AUC(0-t): 89700 ng·h/mL
[1]; both sexes, human, plasma, po, 100 mg, 100 mg single oral dose, fed, n=9, mean (SD), read-out: t1/2 (converted)
  half-life: 168 h
[1]; both sexes, human, plasma, po, 100 mg, 100 mg single oral dose, fed, n=9, read-out: tmax
  Tmax: 12 h
[1]; [6]
  AUC(0-inf): 201000 ng·h/mL
  Cmax: 1810 ng/mL
[1]; both sexes, human, plasma, po, 200 mg, 200 mg single oral dose, fasted, n=6, mean (SD), read-out: AUC216h
  AUC(0-t): 154000 ng·h/mL
[1]; both sexes, human, plasma, po, 200 mg, 200 mg single oral dose, fasted, n=6, mean (SD), read-out: AUClast
  AUC(0-t): 200000 ng·h/mL
[1]; both sexes, human, plasma, po, 200 mg, 200 mg single oral dose, fasted, n=6, mean (SD), read-out: t1/2 (converted)
  half-life: 164 h
[1]; both sexes, human, plasma, po, 200 mg, 200 mg single oral dose, fasted, n=6, read-out: tmax
  Tmax: 6 h
[1]; both sexes, human, plasma, po, single oral doses 10 to 200 mg, read-out: plasma half-life, mean T1/2 values across the dose groups
  half-life: 164 to 170 h
FGFR1(h)
  activity at 1 µM: 103%
  activity at 10 µM: 125%
CLK2(h)
  activity at 1 µM: 108%
  activity at 10 µM: 99%
MAPK1(h)
  activity at 1 µM: 91%
  activity at 10 µM: 112%
NT1 (h) (NTS1)
  inhibition at 1 µM: < 10%
  inhibition at 10 µM: < 10%
NEK2(h)
  activity at 1 µM: 102%
  activity at 10 µM: 108%
AT1; agonist
  EC50: > 5 µM
AT1; antagonist
  IC50: > 5 µM
5-HT5A (h)
  inhibition at 1 µM: < 10%
  inhibition at 10 µM: < 10%
TrkC(h)
  activity at 1 µM: 92%
  activity at 10 µM: 88%
ADRB2; agonist
  EC50: > 12.5 µM
ADRB2; antagonist
  IC50: > 12.5 µM
GR
  IC50: > 1.5 µM
PKBα(h)
  activity at 1 µM: 97%
  activity at 10 µM: 95%
CHK2(h)
  activity at 1 µM: 107%
  activity at 10 µM: 111%
H2 (h)
  inhibition at 1 µM: < 10%
  inhibition at 10 µM: 16.6%

— article PMC8155022 (Scientific Reports, 2021)
